The nature of data set [1]: Toxicity in male BALB/c nude mouse xenografted with KK-LC-1-positive human MKN-45 cells assessed as body weight loss at 3 mg/kg, iv administered twice a week for 3 weeks. It is filed as organism-based. As to conditions: in vivo, 504 h.
Data set [2] in a line: Toxicity in male BALB/c nude mouse xenografted with KK-LC-1-positive human NUGC-4 cells assessed as mouse survival at 0.3 mg/kg, iv administered once a week for 3 weeks followed by exposure to 2 Gy gamma irradiation for 2 consecutive days once a week for 3 weeks measured after 47 days. As to conditions: in vivo. It is filed as organism-based.
A short description of data set [3]: Toxicity in male BALB/c nude mouse xenografted with KK-LC-1-positive human MKN-45 cells assessed as effect on kidney function at 1 mg/kg, iv administered twice a week for 3 weeks. It is filed as organism-based. As to conditions: in vivo, 504 h.
In data set [4] the test system is NUGC-4. Put plainly: Inhibition of colony formation in KK-LC-1-positive human NUGC-4 cells assessed as decrease in colonies incubated for 24 hrs followed by exposure to 2 Gy gamma irradiation by crystal violet staining based clonogenic assay. It is filed as functional, cell-based.
Data set [5] can be described thus: Toxicity in male BALB/c nude mouse xenografted with KK-LC-1-positive human MKN-45 cells assessed as body weight loss at 2 mg/kg, iv administered twice a week for 3 weeks. It is filed as organism-based. As to conditions: in vivo, 504 h.
The subject of data set [6] is NUGC-4. As to the kind of experiment: Induction of mitotic arrest in KK-LC-1-positive human NUGC-4 cells xenografted in nude mouse assessed as number of pHH3-positive nuclei in tumor at 4 nmol, iv administered as single dose and measured after 24 hrs by pHH3 immunohistochemical staining method relative to control. It is filed as functional.
The subject of data set [7] is MKN-45. As to the kind of experiment: Antitumor activity against KK-LC-1-positive human MKN-45 cells xenografted in male BALB/c nude mouse assessed as reduction in tumor growth at 0.3 mg/kg, iv administered twice a week for 3 weeks. It is filed as functional, organism-based.
The target in data set [8] is T1, Kita-kyushu lung cancer antigen 1 (Homo sapiens) (UniProt Q5H943).
T1 sequence (whole entry): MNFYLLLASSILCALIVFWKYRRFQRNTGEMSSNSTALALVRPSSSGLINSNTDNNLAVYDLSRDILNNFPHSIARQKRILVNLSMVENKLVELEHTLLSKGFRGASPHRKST
As to the kind of experiment: Binding affinity to KK-LC-1 in KK-LC-1-positive human NUGC-4 cells using FITC-labeled compound at 1 to 1000 uM incubated for 30 mins and measured by flow cytometry assay. It is filed as cell-based. As to conditions: dose 1-1000 µM.

A short description of data set [9]: Toxicity in male BALB/c nude mouse xenografted with KK-LC-1-positive human MKN-45 cells assessed as mouse death at 3 mg/kg, iv administered twice a week for 3 weeks. Type of data set: organism-based. As to conditions: in vivo, 504 h.
Data set [10] concerns NUGC-4. Put plainly: Cell cycle arrest in KK-LC-1-positive human NUGC-4 cells assessed as increase accumulation at G2/M phase at 100 nM measured after 0 to 48 hrs by propidium iodide staining based flow cytometric analysis. Type of data set: functional. As to conditions: time 0-48 hrs, TDE = time-dependent effect.
The nature of data set [11]: Toxicity in male BALB/c nude mouse xenografted with KK-LC-1-positive human MKN-45 cells assessed as body weight loss at 0.3 mg/kg, iv administered twice a week for 3 weeks. Type of data set: organism-based. As to conditions: in vivo, 504 h.
The test system of the next data set is HGC-27. As to the kind of experiment: Cytotoxicity against KK-LC-1-negative human HGC-27 cells incubated for 72 hrs by CCK-8 assay. It is filed as functional, cell-based. As to conditions: HGC-27, 72 h.
Data set [12] addresses T1, Kita-kyushu lung cancer antigen 1 (Homo sapiens). As to the kind of experiment: Binding affinity to KK-LC-1 in KK-LC-1-positive human MKN-45 cells using FITC-labeled compound at 1 to 1000 uM incubated for 30 mins and measured by flow cytometry assay. Type of data set: cell-based. As to conditions: dose 1-1000 µM.
Data set [13] is described as follows: Toxicity in male BALB/c nude mouse xenografted with KK-LC-1-positive human NUGC-4 cells assessed as median survival time at 0.3 mg/kg, iv administered once a week for 3 weeks followed by exposure to 2 Gy gamma irradiation for 2 consecutive days once a week for 3 weeks measured after 47 days. Type of data set: organism-based. As to conditions: in vivo, 504 h.

In data set [14] the test system is MKN-45. Put plainly: Antitumor activity against KK-LC-1-positive human MKN-45 cells xenografted in male BALB/c nude mouse assessed as tumor volume at 0.3 mg/kg, iv administered twice a week for 3 weeks. It is filed as functional.
The test system of data set [15] is NUGC-4. As to the kind of experiment: Induction of apoptosis in KK-LC-1-positive human NUGC-4 cells at 100 nM incubated for 24 hrs followed by exposure to 2 Gy gamma irradiation by AnnexinV/PI-staining based flow cytometry. Type of data set: functional, cell-based.
Data set [16] deals with MKN-45. Put plainly: Induction of apoptosis in KK-LC-1-positive human MKN-45 cells at 100 nM incubated for 24 hrs followed by exposure to 2 Gy gamma irradiation by AnnexinV/PI-staining based flow cytometry. Type of data set: functional, cell-based.
Data set [17] relates to MKN-45. Put plainly: Induction of DNA damage in KK-LC-1-positive human MKN-45 cells assessed as double strand breaks by measuring increase in gamma-H2AX foci formation at 100 nM incubated for 24 hrs followed by exposure to 2 Gy gamma irradiation by immunofluorescence staining method. It is filed as functional, cell-based.
Data set [18] in a line: Toxicity in male BALB/c nude mouse xenografted with KK-LC-1-positive human MKN-45 cells assessed as effect on kidney function at 0.3 mg/kg, iv administered twice a week for 3 weeks. Type of data set: organism-based. As to conditions: in vivo, 504 h.

Activity calls are given as the source filed them. The rule behind the calls is not given here. *1 amine or outer side, *2 acyl side, *3 side chain or, on linkers, in order; H or OH if unused. Where a SMILES comes first, the peptide text is derived from it. Bridges are numbered along the chain shown (N, C = ends). Roman numbers before positions name the chains, in order. [ ]: non-standard residue; d: D form. The star is where a group is joined. Hexanoyl(6-succinimido-3yl) = O=C1CC([*:1])C(=O)N1CCCCCC(=O)[*:2]; Dolaproine = CO[C@@H]([C@@H]1CCCN1)[C@@H](C)C(=O)O; Dil = CC[C@H](C)[C@H](NC)[C@@H](CC(=O)O)OC; PABC = O=C(OCc1ccc(N[*:1])cc1)[*:2]; X1 = C[C@@H](N*)[C@@H](O)c1ccccc1; Cit = NC(=O)NCCC[C@H](N)C(=O)O; NMeV = CN[C@H](C(=O)O)C(C)C

As for `CC[C@H](C)[C@@H]([C@@H](CC(=O)N1CCC[C@H]1[C@H](OC)[C@@H](C)C(=O)N[C@H](C)[C@@H](O)c1ccccc1)OC)N(C)C(=O)[C@@H](NC(=O)[C@@H](NC(=O)[C@H](C(C)C)N(C)C(=O)OCc1ccc(NC(=O)[C@H](CCCNC(N)=O)NC(=O)[C@@H](NC(=O)CCCCCN2C(=O)CC(SC[C@H](N)C(=O)N[C@H]3CSSC[C@@H](C(=O)O)NC(=O)[C@H]([C@@H](C)O)NC(=O)[C@H]([C@@H](C)O)NC(=O)[C@H](CC(C)C)NC(=O)[C@H](C)NC(=O)[C@H]([C@@H](C)O)NC(=O)[C@H](CC(N)=O)NC(=O)[C@H](CCCCN)NC3=O)C2=O)C(C)C)cc1)C(C)C)C(C)C` (some centres undefined) (I: H-CCKNTALTTC-OH / II: V[Cit][PABC][NMeV]VV[Dil][Dolaproine]-X1; linker I:1-II:N via Hexanoyl(6-succinimido-3yl); disulfide I:2-I:10), the Activity result in [1] is “Toxic”; in data set [3], “Non-Toxic”; in [5] it was “Non-Toxic”; in the data set with NUGC-4 [6] it was 87; in data set [9], “Toxic”; with NUGC-4 [10], “Tde”. For the same compound, the Activity result was “Non-Toxic” in [11], 292.1 mm3 with MKN-45 [14] and “Non-Toxic” in data set [18]. Also, in data set [2], the survival at 504 h is 83.3%. The inhibition entry in the data set on NUGC-4 [4] is “Active”. Besides, the result (in the data set with MKN-45 [7]; in data set [8]; in data set [12]; in the data set on NUGC-4 [15]; in the data set with MKN-45 [16]; in the data set on MKN-45 [17]) was Active. In the data set with HGC-27, this compound came in with an IC50 of 786 nM. Further, the MST in data set [13] was 58 days.

The values are drawn from ChEMBL document CHEMBL5108004, “An auristatin-based peptide-drug conjugate targeting Kita-Kyushu lung cancer antigen 1 for precision chemoradiotherapy in gastric cancer” (Eur J Med Chem, 2022).
